Values belong to the compound of their own block, whether it stands above or below them.
Legend:
[1] = Apparent permeability across human Caco2 cells measured every 30 mins for 2 hrs; format: ADME, cell-based; conditions: Caco-2
[2] = Oral bioavailability in human at 57 to 200 mg; format: ADME, organism-based; conditions: in vivo
Homo sapiens [3] = species: Homo sapiens; assay: Selectivity ratio of Ki for human PKK to Ki for human factor 11a
[4] = Apparent permeability across apical to basolateral side in human Caco2 cells at 10 umol/l measured at 45 to 120 mins by LC-MS/MS analysis; format: ADME, cell-based; conditions: Caco-2
[5] = Apparent permeability across apical to basolateral side in human Caco2 cells at 750 uM measured over 90 mins by HPLC-MS analysis; format: ADME, cell-based; conditions: Caco-2
Homo sapiens [6] = species: Homo sapiens; assay: Selectivity ratio of Ki for recombinant human factor 9a to Ki for human factor 10a
[7] = Efflux ratio of apparent permeability across basolateral to apical over apical to basolateral side in human Caco2 cells; format: ADME, cell-based; conditions: Caco-2
[8] = Oral bioavailability in human at 10 mg; format: ADME, organism-based; conditions: in vivo
Plasma kallikrein = Plasma kallikrein (Homo sapiens, UniProt P03952); assay: Competitive inhibition of human plasma kallikrein using S2302 as substrate by UV-visible spectrophotometer
Plasminogen = Plasminogen (Homo sapiens, UniProt P00747); assay: Competitive inhibition of human plasmin using chromozyme PL as substrate by UV-visible spectrophotometer
Coagulation factor X = Coagulation factor X (Homo sapiens, UniProt P00742); assay: Competitive inhibition of human factor 10a using pefachrome F10a as substrate by UV-visible spectrophotometer
Coagulation factor XI = Coagulation factor XI (Homo sapiens, UniProt P03951); assay: Competitive inhibition of human factor 11a using pefachrome PCa as substrate by UV-visible spectrophotometer

Compound: N=C(N)c1ccc(CNC(=O)[C@@H]2CCN2C(=O)[C@H](NCC(=O)O)C2CCCCC2)cc1
Papp at 2 h [1]: 0.03 ×10⁻⁶ cm/s
bioavailability [2]: 3 to 7%

Compound: CCOC(=O)CN[C@@H](C(=O)N1CC[C@H]1C(=O)NCc1ccc(/C(N)=N\O)cc1)C1CCCCC1 [XIMELAGATRAN]
Papp A→B at 1.5 h, 750 µM [5]: 2.4 ×10⁻⁶ cm/s

Compound: CCCCCCOC(=O)NC(=N)c1ccc(NCc2nc3cc(C(=O)N(CCC(=O)OCC)c4ccccn4)ccc3n2C)cc1 [DABIGATRAN ETEXILATE]
efflux ratio [7]: 13.8

Compound: O=C(NC[C@H]1CN(c2ccc(N3CCOCC3=O)cc2)C(=O)O1)c1ccc(Cl)s1 [RIVAROXABAN]
bioavailability [8]: > 80%

Next, values leading:

Ratio Ki (Homo sapiens [3]): 10
Papp A→B at 10 µM [4]: 0.28 ×10⁻⁶ cm/s
Compound: O=C(N[C@@H](Cc1ccccc1)C(=O)NCc1cc(=O)[nH]c2ccc(Cl)cc12)c1ccc2[nH]c(=O)cc(O)c2c1

Ratio Ki (Homo sapiens [6]): 130
Compound: N=C(N)c1cccc(-n2nc(C(F)(F)F)cc2C(=O)Nc2ccc(-n3cnc4ccccc43)cc2F)c1

Ki (Plasma kallikrein): 0.02 nM
Ki (Plasminogen): 2.2 nM
Ki (Coagulation factor X): 45 nM
Ki (Coagulation factor XI): 18 nM
Compound: N=C(N)c1ccc(CC(=O)[C@H](Cc2cccc(CN)c2)NC(=O)[C@@H](CCCc2ccccc2)NS(=O)(=O)Cc2cccc(C(=O)O)c2)cc1
